Source: ChEMBL document CHEMBL1201862, “PubChem BioAssay data set” (2004)
Active and inactive are the calls of the source.

How the values were obtained:
[1] = viability inhibitors of stage V gametocytes – luminescence, dose response (AID 1117278); type: functional, cell-based;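 also: gametocytes exposed to compound for 24 hours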
[2] = viability loss in human Jurkat cells – cell-based, luminescence, cytotoxicity control for P. falciparum gametocyte viability project, dose response (AID 1117277); type: functional;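 also: potency reflects loss of cellular ATP meaning fewer viable cells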
[3] = Luminescence-based cell-based high throughput dose response assay to identify activators of the DAF-12 from the parasite S. stercoralis (ssDAF-12).; type: functional
[4] = biological target: T1, Oxysterols receptor LXR-beta (Homo sapiens, UniProt P55055); assay: LXR agonists, Gal4 luciferase reporter, dose response, counter-screen for ssDAF-12 agonist project, cell-based, luminescence, HEK293, S. stercoralis campaign (AID 720737); type: functional; conditions: read-out: IC50 (the source's name)
T1 sequence (P55055 whole entry): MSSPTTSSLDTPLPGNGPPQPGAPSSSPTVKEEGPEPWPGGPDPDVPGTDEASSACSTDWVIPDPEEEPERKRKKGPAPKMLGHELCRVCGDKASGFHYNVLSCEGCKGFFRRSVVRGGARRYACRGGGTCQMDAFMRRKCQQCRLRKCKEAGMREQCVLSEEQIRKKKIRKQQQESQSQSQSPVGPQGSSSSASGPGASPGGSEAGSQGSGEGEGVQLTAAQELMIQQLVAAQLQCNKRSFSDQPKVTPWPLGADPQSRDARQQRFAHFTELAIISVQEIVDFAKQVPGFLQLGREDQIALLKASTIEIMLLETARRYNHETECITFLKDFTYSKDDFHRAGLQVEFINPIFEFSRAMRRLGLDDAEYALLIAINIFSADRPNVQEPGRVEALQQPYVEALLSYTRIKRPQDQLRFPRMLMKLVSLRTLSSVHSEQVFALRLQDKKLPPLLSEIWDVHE

[5] = HEK-293T cell viability reduction – luminescence, B-cell screen hits, cytotoxicity control for BCR NF-kB inhibitor project, dose response (AID 489021); type: functional, cell-based;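 also: HEK-293T cells carrying an NF-kB luciferase reporter; cells exposed to compound for about 14 hours before viability readout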
[6] = HIV-1 Vif–A3G interaction blockers – biochemical, TR-FRET, GST-Vif 1-94, biotin-A3G peptide, dose response retest, primary screen (AID 1117319); type: functional;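 also: TR-FRET signal of purified GST-Vif binding a biotinylated A3G peptide; inhibitors lower the FRET signal by blocking Vif and A3G binding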
Protein Tat = Protein Tat (Human immunodeficiency virus type 1 group M subtype B (isolate HXB2)(HIV-1), UniProt P04608); type: functional;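 also: tat binding to TAR RNA read out by fluorescence polarization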
Kallikrein-7 = Kallikrein-7 (Homo sapiens, UniProt P49862); assay: Fluorescence Intensity-based biochemical primary high throughput dose response assay to identify activators of kallikrein-7 (K7) zymogen.
[7] = Luminescence Cell-Based Dose Retest to Confirm Inhibitors of Cancer Stem Cells. [Related pubchem assays (depositor defined):AID2717, AID2721]; type: functional; conditions: Homo sapiens
[8] = biological target: Neurotensin receptor type 1 (Homo sapiens, UniProt P30989); type: functional;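 also: Image-based confirmatory dose-response assay measuring agonist activity at NTR1; NTR1-expressing U2OS osteosarcoma cells imaged for beta-arrestin GFP spot formation; agonist potency where compounds increase beta-arrestin recruitment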
[9] = viability loss of HMLE_sh_eGFP cells – cell-based, luminescence, counter-screen for HMLE_sh_ECad selective toxicity project, dose response (AID 463074); type: functional, Homo sapiens;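 also: HMLE human mammary epithelial cells expressing control shRNA against eGFP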
[10] = biological target: Heat shock protein HSP 90-alpha (Homo sapiens, UniProt P07900); type: functional, organism-based
[11] = biological target: T2, Mannose-6-phosphate isomerase (Homo sapiens, UniProt P34949); assay: MPI enzyme activity inhibition – biochemical, fluorescence intensity, coupled assay, primary screen (AID 1209)
T2 sequence (P34949 whole entry): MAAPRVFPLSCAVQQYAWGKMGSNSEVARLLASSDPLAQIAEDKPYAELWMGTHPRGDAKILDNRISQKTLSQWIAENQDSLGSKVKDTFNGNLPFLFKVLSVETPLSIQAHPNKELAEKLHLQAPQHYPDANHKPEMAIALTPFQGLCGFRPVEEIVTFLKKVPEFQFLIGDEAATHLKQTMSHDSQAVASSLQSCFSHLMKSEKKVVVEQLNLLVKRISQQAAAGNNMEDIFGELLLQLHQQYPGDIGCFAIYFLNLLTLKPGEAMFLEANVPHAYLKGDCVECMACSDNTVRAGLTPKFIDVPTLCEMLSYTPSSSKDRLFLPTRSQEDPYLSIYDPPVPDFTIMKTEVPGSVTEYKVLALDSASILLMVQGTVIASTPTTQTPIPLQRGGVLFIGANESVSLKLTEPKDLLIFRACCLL

INS1 = assay: INS-1E survival protection against cytokine death – cell-based, luminescence, retest, dose response (AID 449756); type: functional; conditions: Rattus norvegicus;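 also: cell death triggered by IL-1 beta plus TNF-alpha plus IFN-gamma mixture; protective hits raise ATP signal compared with cytokine alone wells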
[12] = biological target: Lysosomal acid glucosylceramidase (Homo sapiens, UniProt P04062); assay: Dose response cell-based high throughput screening assay to identify enhancers of beta-glucosidase activity. [Related pubchem assays: 784 ]; type: functional
[13] = Luminescence Cell-Based Dose Confirmation HTS to Identify Inhibitors of Polyadenylation.; type: functional
Estrogen receptor beta [14] = biological target: T3, Estrogen receptor beta (Homo sapiens, UniProt Q92731);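 also: recombinant ER-beta bound to coactivator SRC1 peptide in presence of estradiol agonist; inhibitors block coactivator peptide binding and lower the FRET signal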
Estrogen receptor beta [15] = biological target: T3, Estrogen receptor beta; assay: blockers of SRC-3 recruitment to ERβ – biochemical, ELISA, streptavidin-HRP readout, orthogonal assay, confirmation (AID 1060)
[16] = biological target: DNA dC->dU-editing enzyme APOBEC-3A (Homo sapiens, UniProt P31941); assay: Dose Response confirmation of small molecule APOBEC3A DNA Deaminase Inhibitors via a fluorescence-based single-stranded DNA deaminase assay. [Related pubchem assays (depositor defined):AID493011, AID493024]; type: functional
[17] = biological target: DNA dC->dU-editing enzyme APOBEC-3G (Homo sapiens, UniProt Q9HC16); type: functional;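 also: Dose-response counterscreen measuring inhibition of APOBEC3G DNA deaminase activity, run while confirming APOBEC3A inhibitors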
[18] = viability loss in Vero cells – cytotoxicity control for Vif-APOBEC3G degradation inhibitor project, dose response (AID 1117358); type: functional; conditions: Vero
[19] = biological target: E3 ubiquitin-protein ligase Mdm2 (Homo sapiens, UniProt Q00987); assay: MDM2-luc reporter signal enhancers, multi-concentration potency testing, MDM2 ubiquitin-protein ligase inhibitor program, whole-cell format, luminescence detection, 384-well microplate (AID 1394); type: functional;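 also: MDM2 E3 inhibitors raise luminescence so EC50 is for signal enhancement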
[20] = biological target: Eukaryotic translation initiation factor 4H (Homo sapiens, UniProt Q15056); assay: eIF4H binding inhibition – biochemical, uHTS, fluorescence polarization, translation initiation inhibitor project, primary screen (AID 2012)
[21] = biological target: Polyadenylate-binding protein 1 (Homo sapiens, UniProt P11940); assay: blockers of PABP interaction with poly(A) – biochemical, fluorescence polarization, […] (AID 2014)
[22] = biological target: T4, Alkaline phosphatase, tissue-nonspecific isozyme (Homo sapiens, UniProt P05186)
T4 sequence (P05186 whole entry): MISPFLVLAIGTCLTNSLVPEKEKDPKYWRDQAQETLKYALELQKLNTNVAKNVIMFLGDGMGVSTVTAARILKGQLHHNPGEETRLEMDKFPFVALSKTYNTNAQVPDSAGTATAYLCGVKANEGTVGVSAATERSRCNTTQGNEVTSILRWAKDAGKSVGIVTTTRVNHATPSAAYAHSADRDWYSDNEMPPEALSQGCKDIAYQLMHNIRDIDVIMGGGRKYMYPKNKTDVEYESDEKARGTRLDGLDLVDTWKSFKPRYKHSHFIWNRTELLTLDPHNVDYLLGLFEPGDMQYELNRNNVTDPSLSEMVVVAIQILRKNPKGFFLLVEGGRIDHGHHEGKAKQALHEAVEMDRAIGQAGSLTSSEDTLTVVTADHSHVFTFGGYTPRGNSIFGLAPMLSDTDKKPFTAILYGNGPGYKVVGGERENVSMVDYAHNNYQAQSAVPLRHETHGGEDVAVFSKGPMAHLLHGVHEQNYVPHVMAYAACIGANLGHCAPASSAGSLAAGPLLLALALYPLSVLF

Paired box protein Pax-8 = Paired box protein Pax-8 (Homo sapiens, UniProt Q06710); assay: PAX8 transcriptional activity inhibition in RMG-I – RMG-I cells, luciferase, cherry-pick, dose response (AID 687027); type: functional, cell-based;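 also: luciferase reporter driven by Pax8 target thyroperoxidase promoter measured by SteadyGlo luminescence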
[23] = A2780 cell killing – plate reader, dry powder samples, cytotoxicity control, dose response (AID 743046); type: functional, cell-based
[24] = OVCAR-3 cell viability loss – plate reader, dry powder samples, PAX8 inhibitor project, dose response (AID 743044); type: functional, cell-based
[25] = general cell-killing toxicity readout – plate reader, dry powder samples, cytotoxicity control for PAX8 inhibitor project, dose response (AID 743021); type: functional, cell-based
[26] = biological target: T2, Mannose-6-phosphate isomerase; assay: MPI inhibition at elevated mannose 6-phosphate – biochemical, fluorescence intensity, high mannose 6-phosphate, primary screen (AID 1220)
cells = conditions: HEK293
[27] = rise of 2N DNA cells, HeLa – IC50, dose response (AID 1117349); type: functional, cell-based
[28] = rise of 4N DNA cells, HeLa – IC50, dose response (AID 1117351); type: functional, cell-based

T3 sequence (Q92731 whole entry): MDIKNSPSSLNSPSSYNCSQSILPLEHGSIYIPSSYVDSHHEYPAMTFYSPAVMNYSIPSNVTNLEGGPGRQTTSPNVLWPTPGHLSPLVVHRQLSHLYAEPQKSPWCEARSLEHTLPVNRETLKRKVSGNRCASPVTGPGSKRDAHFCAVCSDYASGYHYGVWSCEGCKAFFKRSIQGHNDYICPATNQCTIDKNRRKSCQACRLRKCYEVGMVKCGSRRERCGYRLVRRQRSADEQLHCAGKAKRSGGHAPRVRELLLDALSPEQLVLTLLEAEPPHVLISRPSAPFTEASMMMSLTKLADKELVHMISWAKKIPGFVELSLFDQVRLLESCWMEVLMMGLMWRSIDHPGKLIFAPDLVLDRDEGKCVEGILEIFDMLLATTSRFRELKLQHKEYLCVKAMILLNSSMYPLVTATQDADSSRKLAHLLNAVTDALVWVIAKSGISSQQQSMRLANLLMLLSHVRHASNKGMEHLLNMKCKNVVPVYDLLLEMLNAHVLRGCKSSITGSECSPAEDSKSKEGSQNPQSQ
Lysosomal acid glucosylceramidase, sequence (P04062 whole entry): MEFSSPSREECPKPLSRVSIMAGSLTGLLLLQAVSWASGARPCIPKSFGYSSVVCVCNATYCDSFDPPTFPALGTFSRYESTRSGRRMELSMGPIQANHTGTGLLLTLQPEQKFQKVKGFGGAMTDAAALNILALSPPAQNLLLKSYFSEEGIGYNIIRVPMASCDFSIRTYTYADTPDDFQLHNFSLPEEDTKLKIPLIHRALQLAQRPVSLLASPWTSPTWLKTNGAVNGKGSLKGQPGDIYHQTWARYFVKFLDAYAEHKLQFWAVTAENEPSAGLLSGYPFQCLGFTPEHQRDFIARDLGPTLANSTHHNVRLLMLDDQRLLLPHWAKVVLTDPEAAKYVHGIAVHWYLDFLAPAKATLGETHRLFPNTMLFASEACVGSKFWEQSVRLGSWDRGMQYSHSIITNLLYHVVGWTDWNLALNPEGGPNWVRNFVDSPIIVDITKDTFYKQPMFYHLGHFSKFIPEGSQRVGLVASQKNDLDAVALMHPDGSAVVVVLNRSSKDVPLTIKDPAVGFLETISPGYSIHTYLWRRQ
Protein Tat, sequence (P04608 whole entry): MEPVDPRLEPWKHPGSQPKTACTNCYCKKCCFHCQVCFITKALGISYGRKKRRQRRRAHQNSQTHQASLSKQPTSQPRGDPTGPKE
Neurotensin receptor type 1, sequence (P30989 whole entry): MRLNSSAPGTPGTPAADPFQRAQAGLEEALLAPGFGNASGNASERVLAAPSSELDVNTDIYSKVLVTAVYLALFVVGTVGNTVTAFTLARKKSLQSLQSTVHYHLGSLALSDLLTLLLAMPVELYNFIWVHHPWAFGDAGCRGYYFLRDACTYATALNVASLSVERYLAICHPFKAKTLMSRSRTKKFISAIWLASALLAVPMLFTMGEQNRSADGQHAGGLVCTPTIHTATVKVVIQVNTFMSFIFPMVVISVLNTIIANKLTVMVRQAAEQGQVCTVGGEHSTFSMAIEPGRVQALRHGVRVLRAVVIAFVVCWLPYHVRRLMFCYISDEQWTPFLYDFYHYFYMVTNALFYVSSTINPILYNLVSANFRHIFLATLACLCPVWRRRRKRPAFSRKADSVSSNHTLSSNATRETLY
Paired box protein Pax-8, sequence (Q06710 whole entry): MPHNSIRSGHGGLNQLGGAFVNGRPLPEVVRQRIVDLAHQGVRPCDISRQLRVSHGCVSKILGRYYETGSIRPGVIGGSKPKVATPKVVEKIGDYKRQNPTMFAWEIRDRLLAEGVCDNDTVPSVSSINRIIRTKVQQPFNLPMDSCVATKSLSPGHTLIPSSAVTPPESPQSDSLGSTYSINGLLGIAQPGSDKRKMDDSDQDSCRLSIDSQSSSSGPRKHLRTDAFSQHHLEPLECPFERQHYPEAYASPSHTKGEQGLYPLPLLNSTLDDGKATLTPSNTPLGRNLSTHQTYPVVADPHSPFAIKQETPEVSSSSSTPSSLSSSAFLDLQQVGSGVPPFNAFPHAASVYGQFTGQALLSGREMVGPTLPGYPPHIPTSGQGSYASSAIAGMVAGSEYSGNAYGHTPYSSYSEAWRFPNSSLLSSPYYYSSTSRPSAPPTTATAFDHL
E3 ubiquitin-protein ligase Mdm2, sequence (Q00987 whole entry): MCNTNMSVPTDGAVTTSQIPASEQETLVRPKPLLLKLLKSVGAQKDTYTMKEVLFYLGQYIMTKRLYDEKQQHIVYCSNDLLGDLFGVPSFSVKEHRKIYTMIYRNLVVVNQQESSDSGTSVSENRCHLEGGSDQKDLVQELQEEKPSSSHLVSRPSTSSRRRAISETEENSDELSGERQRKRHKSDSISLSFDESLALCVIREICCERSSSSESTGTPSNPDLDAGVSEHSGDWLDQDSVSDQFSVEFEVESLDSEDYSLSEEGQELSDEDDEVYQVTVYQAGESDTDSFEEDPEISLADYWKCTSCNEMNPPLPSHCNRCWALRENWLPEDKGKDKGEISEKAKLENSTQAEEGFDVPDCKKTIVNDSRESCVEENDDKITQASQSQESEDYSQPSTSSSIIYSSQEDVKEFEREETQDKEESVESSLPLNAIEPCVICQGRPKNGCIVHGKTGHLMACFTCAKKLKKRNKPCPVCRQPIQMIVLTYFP
Kallikrein-7, sequence (P49862 whole entry): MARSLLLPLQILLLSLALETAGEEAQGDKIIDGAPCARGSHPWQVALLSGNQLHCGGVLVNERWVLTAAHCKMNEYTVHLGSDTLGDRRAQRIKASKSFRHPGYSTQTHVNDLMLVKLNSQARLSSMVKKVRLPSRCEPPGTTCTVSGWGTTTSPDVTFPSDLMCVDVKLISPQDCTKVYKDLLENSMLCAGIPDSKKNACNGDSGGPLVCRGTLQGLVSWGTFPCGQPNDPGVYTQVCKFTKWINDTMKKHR
DNA dC->dU-editing enzyme APOBEC-3A, sequence (P31941 whole entry): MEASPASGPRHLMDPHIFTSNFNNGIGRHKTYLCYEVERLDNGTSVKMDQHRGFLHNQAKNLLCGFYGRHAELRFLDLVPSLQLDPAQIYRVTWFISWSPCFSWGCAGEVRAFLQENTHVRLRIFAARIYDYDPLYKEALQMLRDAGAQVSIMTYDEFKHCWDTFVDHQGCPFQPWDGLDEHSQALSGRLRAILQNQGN
DNA dC->dU-editing enzyme APOBEC-3G, sequence (Q9HC16 whole entry): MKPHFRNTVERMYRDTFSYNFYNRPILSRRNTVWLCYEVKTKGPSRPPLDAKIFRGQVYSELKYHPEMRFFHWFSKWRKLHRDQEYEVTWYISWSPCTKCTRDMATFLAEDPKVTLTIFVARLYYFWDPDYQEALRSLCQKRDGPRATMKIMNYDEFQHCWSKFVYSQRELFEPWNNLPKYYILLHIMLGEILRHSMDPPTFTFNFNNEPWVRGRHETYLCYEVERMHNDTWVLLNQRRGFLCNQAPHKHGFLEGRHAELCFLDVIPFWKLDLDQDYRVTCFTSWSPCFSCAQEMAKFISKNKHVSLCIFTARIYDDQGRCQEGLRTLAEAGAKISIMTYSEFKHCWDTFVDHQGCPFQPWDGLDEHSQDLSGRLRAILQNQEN
Polyadenylate-binding protein 1, sequence (P11940 whole entry): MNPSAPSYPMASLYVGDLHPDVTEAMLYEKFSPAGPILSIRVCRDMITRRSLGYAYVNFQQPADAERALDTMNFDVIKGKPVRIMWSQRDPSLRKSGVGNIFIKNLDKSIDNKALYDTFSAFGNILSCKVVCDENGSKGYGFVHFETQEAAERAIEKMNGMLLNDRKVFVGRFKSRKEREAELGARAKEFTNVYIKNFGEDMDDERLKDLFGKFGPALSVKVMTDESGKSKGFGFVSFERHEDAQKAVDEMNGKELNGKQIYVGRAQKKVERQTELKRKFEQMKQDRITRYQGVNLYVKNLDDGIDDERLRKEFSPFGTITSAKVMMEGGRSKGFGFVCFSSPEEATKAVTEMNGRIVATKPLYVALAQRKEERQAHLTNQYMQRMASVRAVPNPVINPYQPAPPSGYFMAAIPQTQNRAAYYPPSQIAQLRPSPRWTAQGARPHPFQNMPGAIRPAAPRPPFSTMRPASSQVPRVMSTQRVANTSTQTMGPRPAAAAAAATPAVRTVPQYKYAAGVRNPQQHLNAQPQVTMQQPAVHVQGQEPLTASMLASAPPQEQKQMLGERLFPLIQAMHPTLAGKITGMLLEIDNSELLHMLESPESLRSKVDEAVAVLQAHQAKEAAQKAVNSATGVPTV

CC1CCCN(CC(O)CN)C1 (centres undefined)
IC50 [1]: > 109 µM (inactive) | IC50 [2]: > 83.3 µM (inactive)

Cc1c(C(=O)O/N=C(\N)c2ccccn2)cccc1[N+](=O)[O-]
IC50 [3]: > 67.6 µM (inactive) | EC50 [4]: > 67.6 µM (inactive)

O=C(CCl)Nc1ccccc1Sc1ccccc1
IC50 [5]: > 80 µM (inactive)

CCC(=O)N1CCc2cc(S(=O)(=O)NCCC(=O)NC3CCCc4ccccc43)ccc21 (centres undefined)
IC50 [6]: > 100 µM (active)

CCn1c(SCC(=O)Nc2cc(C)on2)nnc1-c1cccnc1
IC50 (Protein Tat): > 100 µM (active)

O=C(NCCCN1CCCC1=O)c1cc2nc(-c3ccco3)cc(C(F)(F)F)n2n1
EC50 (Kallikrein-7): > 69.5 µM (inactive)

CCOC(=O)[C@H]1[C@H]2COc3cc(OC)ccc3[C@@H]2N2C(=O)c3ccc(C)cc3NC(=O)[C@@]12C
IC50 [1]: > 109 µM (inactive) | IC50 [2]: > 83.3 µM (inactive)

O=C(/C=C/c1ccc(Cl)c([N+](=O)[O-])c1)c1cccnc1
AC50 [7]: 4.16 µM (active) | EC50 [8]: > 40 µM (inactive) | AC50 [9]: 56.4 µM (active) | AC50 [10]: 1.31 µM (active)

COc1ccc(C(=O)NC(=S)NNC(=O)c2cnccn2)cc1OC
IC50 [11]: > 50 µM (not active) | AC50 (INS1): 1.03 µM (active)

CC(=O)c1ccc(NC(=O)CSCCO)cc1
EC50 [12]: > 50 µM (not active)

CCOc1ccc(CCNC(=O)CN2C(=O)CCSc3ccccc32)cc1OCC
EC50 [13]: > 120 µM (not active)

O=C1NCCCC2c3cc(O)c4ccccc4c3OC12N1CCCCC1 (centres undefined)
IC50 (Estrogen receptor beta [14]): 13.6 µM (active) | IC50 (Estrogen receptor beta [15]): > 50 µM (not active)

CCN(CC(=O)Nc1c(F)cccc1F)C(=O)c1cccc(-n2cccc2)c1
IC50 [16]: 15.9 µM (active) | IC50 [17]: 34.8 µM (active) | IC50 (Protein Tat): > 100 µM (active)

Cc1ccc(S(=O)(=O)N(C)CC(O)Cn2c3ccccc3c3ccccc32)cc1 (centres undefined)
CC50 [18]: > 40 µM (active)

Cc1cnc(NC(=O)Nc2ccc(Cl)cc2)s1
IC50 [5]: > 80 µM (inactive)

COc1cccc(-c2nc3ccccc3s2)c1O
IC50 [3]: > 67.6 µM (inactive) | EC50 [4]: > 67.6 µM (inactive)

COc1ccc(CC(=O)OCn2nnc3ccccc3c2=O)cc1
CC50 [18]: > 40 µM (active)

CCc1nc2oc3cc(OC)ccc3c(=O)c2c(=O)n1Cc1ccco1
IC50 (Estrogen receptor beta [14]): 30.7 µM (not active) | IC50 (Estrogen receptor beta [15]): 0.0586 µM (not active)

Nc1cccc2c1C(=O)N(C(=O)/C=C/c1cccc(Br)c1)C2=O
EC50 [19]: 7.82 µM (active) | IC50 [6]: > 100 µM (active)

Cc1ccc(-c2nc(Nc3cccc(O)c3)c3ccccc3n2)cc1
AC50 [7]: 5.05 µM (active) | EC50 [8]: 30.6 µM (inactive)

COc1ccc2c(c1)c1nnc(SC)nc1n2C
EC50 [13]: > 120 µM (not active)

CCN1C(NCc2cc(OC)c(OC)c(OC)c2)=N[C@@H](c2ccccc2)[C@H](C(=O)OC)[C@H]1C
IC50 [20]: > 100 µM (inactive) | IC50 [21]: 11.9 µM (active)

CC(Oc1ccccc1)C(=O)NNC(=O)c1ccccn1 (centres undefined)
EC50 [22]: 66.5 µM (not active)

O=C(NCC(=O)N(c1cccnc1)C(C(=O)NC1CCCC1)c1ccco1)c1cccs1 (centres undefined)
EC50 [12]: > 50 µM (not active)

C[C@H](CO)N1C[C@H](C)[C@H](CN(C)C(=O)[C@H](Cc2ccccc2)N(C)C)OCc2ccccc2-c2c(n(C)c3ccccc23)C1=O
AC50 (Paired box protein Pax-8): 16.4 µM (active) | AC50 [23]: 12.6 µM (active) | AC50 [24]: 45.4 µM (active) | AC50 [25]: 36.2 µM (active)

Cc1ccc([N+](=O)[O-])cc1/N=C/C1=C(O)c2ccccc2CC1
IC50 [11]: > 50 µM (not active) | IC50 [26]: > 50 µM (not active)

c1ccc2c(c1)ncn2CCOc1ccc2c(c1)CCC2
AC50 (cells): 36.7 µM (active)

N#Cc1c(N2CCN(c3ccc(F)cc3)CC2)nc(N)c2c(N)nc3c(c12)CC(=O)N3C1CC1
IC50 [26]: > 50 µM (not active)

CCOc1ccc2nc3cc(N)ccc3c(N)c2c1 [ETHACRIDINE LACTATE]
IC50 [27]: > 10 µM (inactive) | IC50 [28]: > 10 µM (inactive)
